Measurements taken from patent US10752615B2, “Spirocyclic containing compounds and pharmaceutical uses thereof” (GB005, Inc., priority 2016, dated 2020).

Legend:
[1] = target: TXK (Homo sapiens (Human), UniProt P42681); experiment: Kinase inhibition assay (Nanosyn, microfluidic detection), TXK; format: biochemical; settings: 1 mM ATP, 3 hours at 25° C.
Experimental: The in vitro kinase assays were performed at Nanosyn (Santa Clara, Calif.) utilizing microfluidic detection technology. The test compounds were serially pre-diluted in DMSO and added, by the acoustic dispensing (Labcyte® 550), directly to 384 well assay plates into 10 uL of a buffer with enzyme (ITK, TXK, BTK or TEC) comprising: 100 mM HEPES, pH7.5, 5 mM MgCl2, 0.1% bovine serum albumin, 1 mM DTT, 0.01% Triton X-100 and the enzyme. Final DMSO concentration was maintained at 1% in all samples, including the controls. The reactions were initiated by addition of ATP (1 mM final concentration) and the fluorescently labeled peptide substrate to a final concentration of 1 uM, and incubated for 3 hours at 25° C. Following incubation, the reactions were quenched by addition of 40 μL of termination buffer (100 mM HEPES, pH7.5, 0.01% Triton X-100, 50 mM EDTA). Terminated plates were analyzed using Caliper LabChip® 3000 microfluidic electrophoresis instrument (Caliper Life Sciences/Perkin Elmer). […] As substrate and product are separated by electrophoresis, two peaks of fluorescence are observed. Change in the relative fluorescence intensity of the substrate and product peaks was the parameter measured, reflecting enzyme activity. In the presence of inhibitor, the ratio between product and substrate is altered: signal of the product decreases, while the signal of the substrate increases. Activity in each test sample was determined as the product to sum ratio (PSR): P/(S+P), where P is the peak height of the product and S is the peak height of the […]. For each compound, enzyme activity was measured at 12 concentrations spaced by 3× dilution intervals. Negative control samples (0%-inhibition in the absence of inhibitor, DMSO only) and positive control samples (100%-inhibition, in the absence of enzyme or in the presence of control inhibitor) were assembled in replicates of four and were used to calculate %-inhibition values in the presence of compounds. Percent inhibition (Pinh) was determined using the following equation: Pinh=(PSR0%−PSRinh)/(PSR0%−PSR100%)*100, where PSRinh is the product sum ratio in the presence of inhibitor, PSR0% is the product sum ratio in the absence of inhibitor and PSR100% is the product sum ratio in 100%-inhibition control samples. To determine IC50 values, the inhibition curves (Pinh versus inhibitor concentration) were fitted by 4 parameter sigmoid dose-response model using XLfit software (IDBS).

[2] = target: BTK (Homo sapiens (Human), UniProt Q06187); experiment: Kinase inhibition assay (Nanosyn, microfluidic detection), BTK; format: biochemical; settings: 1 mM ATP, 3 hours at 25° C.
Experimental: The in vitro kinase assays were performed at Nanosyn (Santa Clara, Calif.) utilizing microfluidic detection technology. The test compounds were serially pre-diluted in DMSO and added, by the acoustic dispensing (Labcyte® 550), directly to 384 well assay plates into 10 uL of a buffer with enzyme (ITK, TXK, BTK or TEC) comprising: 100 mM HEPES, pH7.5, 5 mM MgCl2, 0.1% bovine serum albumin, 1 mM DTT, 0.01% Triton X-100 and the enzyme. Final DMSO concentration was maintained at 1% in all samples, including the controls. The reactions were initiated by addition of ATP (1 mM final concentration) and the fluorescently labeled peptide substrate to a final concentration of 1 uM, and incubated for 3 hours at 25° C. Following incubation, the reactions were quenched by addition of 40 μL of termination buffer (100 mM HEPES, pH7.5, 0.01% Triton X-100, 50 mM EDTA). Terminated plates were analyzed using Caliper LabChip® 3000 microfluidic electrophoresis instrument (Caliper Life Sciences/Perkin Elmer). The enzymatic modification of the peptide substrate (phosphorylation) results in a change of net charge enabling electrophoretic separation of product from substrate. As substrate and product are separated by electrophoresis, two peaks of fluorescence are observed. Change in the relative fluorescence intensity of the substrate and product peaks was the parameter measured, reflecting enzyme activity. In the presence of inhibitor, the ratio between product and substrate is altered: signal of the product decreases, while the signal of the substrate increases. Activity in each test sample was determined as the product to sum ratio (PSR): P/(S+P), where P is the peak height of the product and S is the peak height of the […]. For each compound, enzyme activity was measured at 12 concentrations spaced by 3× dilution intervals. Negative control samples (0%-inhibition in the absence of inhibitor, DMSO only) and positive control samples (100%-inhibition, in the absence of enzyme or in the presence of control inhibitor) were assembled in replicates of four and were used to calculate %-inhibition values in the presence of compounds. Percent inhibition (Pinh) was determined using the following equation: Pinh=(PSR0%−PSRinh)/(PSR0%−PSR100%)*100, where PSRinh is the product sum ratio in the presence of inhibitor, PSR0% is the product sum ratio in the absence of inhibitor and PSR100% is the product sum ratio in 100%-inhibition control samples. To determine IC50 values, the inhibition curves (Pinh versus inhibitor concentration) were fitted by 4 parameter sigmoid dose-response model using XLfit software (IDBS).

Chain of BTK (Q06187 whole entry): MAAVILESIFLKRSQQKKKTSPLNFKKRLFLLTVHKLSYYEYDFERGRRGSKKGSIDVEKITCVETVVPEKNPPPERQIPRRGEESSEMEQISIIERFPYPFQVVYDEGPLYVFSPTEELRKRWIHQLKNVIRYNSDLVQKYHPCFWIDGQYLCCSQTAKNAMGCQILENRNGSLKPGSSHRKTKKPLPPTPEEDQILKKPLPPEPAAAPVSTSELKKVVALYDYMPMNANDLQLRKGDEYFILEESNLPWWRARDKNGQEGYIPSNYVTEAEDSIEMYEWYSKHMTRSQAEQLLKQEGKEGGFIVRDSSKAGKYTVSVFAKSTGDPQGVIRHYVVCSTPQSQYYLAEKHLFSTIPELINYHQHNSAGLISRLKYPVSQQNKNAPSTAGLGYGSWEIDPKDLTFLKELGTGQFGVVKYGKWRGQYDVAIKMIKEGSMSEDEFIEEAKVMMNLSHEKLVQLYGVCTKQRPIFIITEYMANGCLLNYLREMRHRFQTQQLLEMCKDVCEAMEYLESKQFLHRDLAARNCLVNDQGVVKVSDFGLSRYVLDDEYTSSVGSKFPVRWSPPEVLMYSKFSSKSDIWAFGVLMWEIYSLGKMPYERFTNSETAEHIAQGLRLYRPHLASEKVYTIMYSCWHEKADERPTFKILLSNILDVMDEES
Chain of TXK (P42681 whole entry): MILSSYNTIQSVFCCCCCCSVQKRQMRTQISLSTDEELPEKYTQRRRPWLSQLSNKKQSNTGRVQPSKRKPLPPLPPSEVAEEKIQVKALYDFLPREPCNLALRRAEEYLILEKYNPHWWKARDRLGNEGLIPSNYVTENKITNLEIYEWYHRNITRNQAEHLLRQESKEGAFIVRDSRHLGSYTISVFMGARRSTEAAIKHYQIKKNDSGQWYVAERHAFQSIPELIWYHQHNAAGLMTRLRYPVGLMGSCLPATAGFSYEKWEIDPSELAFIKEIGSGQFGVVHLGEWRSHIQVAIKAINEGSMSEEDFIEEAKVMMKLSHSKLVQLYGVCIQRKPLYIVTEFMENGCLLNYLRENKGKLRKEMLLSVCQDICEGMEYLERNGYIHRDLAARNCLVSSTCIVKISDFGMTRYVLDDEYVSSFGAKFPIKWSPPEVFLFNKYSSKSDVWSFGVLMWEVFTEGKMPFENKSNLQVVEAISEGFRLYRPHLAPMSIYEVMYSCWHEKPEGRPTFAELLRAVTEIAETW

Structure (SMILES)	IC50 [1]	IC50 [2]
C=CC(=O)N1CC[C@]2(C1)C[C@H](n1c(NC(=O)c3ccnc(C)c3)nc3cc(CN[C@@H](C)C(C)(C)C)ccc31)C2 [Compound 24]	0.99 nM	5.47 nM
C#Cc1ccc(C(=O)Nc2nc3ccccc3n2[C@H]2C[C@@]3(CCN(C(=O)C=C)C3)C2)s1 [Compound 107]	5.25 nM	21.1 nM
C=CC(=O)N1CC[C@]2(C1)C[C@H](n1c(NC(=O)c3ccc(-c4cc[nH]c(=O)c4)s3)nc3cc(CO)ccc31)C2 [Compound 29]	0.27 nM	0.84 nM
C=CC(=O)N1CC[C@]2(C1)C[C@H](n1c(NC(=O)c3ccc(C(F)F)s3)nc3cc(CN[C@H]4CC[C@H](O)CC4)ccc31)C2 [Compound 35]	0.46 nM	1.04 nM
C=CC(=O)N1CC[C@]2(C1)C[C@H](n1c(NC(=O)c3ccc(-c4ccnc(F)c4)s3)nc3ccccc31)C2 [Compound 125]	0.24 nM	1.06 nM
C=CC(=O)N1CC[C@]2(C1)C[C@H](n1c(NC(=O)c3ccc(-c4ccccc4)nc3)nc3cc(CN[C@@H](C)C(C)(C)C)ccc31)C2 [Compound 33]	0.32 nM	0.78 nM
C=CC(=O)N1CC[C@]2(C1)C[C@H](n1c(NC(=O)c3ccc(-c4cnco4)s3)nc3cc(N(C)C(=O)C4CCOCC4)ccc31)C2 [Compound 51]	0.44 nM	0.73 nM
C=CC(=O)N1CC[C@]2(C1)C[C@H](n1c(NC(=O)c3ccc(-c4cnco4)s3)nc3cc(N(C)C(=O)C(C)C)ccc31)C2 [Compound 54]	0.3 nM	0.56 nM
C=CC(=O)N1CC[C@]2(C1)C[C@H](n1c(NC(=O)c3ccc(-c4ccnc(C)c4)s3)nc3ccccc31)C2 [Compound 147]	0.21 nM	0.41 nM
C=CC(=O)N1CC[C@]2(C1)C[C@H](n1c(NC(=O)c3ccc(-c4cnc(C)nc4)s3)nc3ccccc31)C2 [Compound 135]	8.67 nM	12.7 nM

Other lines, results leading:

IC50 [1]	IC50 [2]	Structure (SMILES)
3.41 nM	27.4 nM	C=CC(=O)N1CC[C@]2(C1)C[C@H](n1c(NC(=O)c3ccc(OC)nc3)nc3ccccc31)C2 [Compound 55]
4.34 nM	11.2 nM	C=CC(=O)N1CC[C@]2(C1)C[C@H](n1c(NC(=O)c3ccc(Oc4ccccc4)nc3)nc3ccccc31)C2 [Compound 66]
0.2 nM	0.49 nM	C=CC(=O)N1CC[C@]2(C1)C[C@H](n1c(NC(=O)c3ccc(-c4cc(NC)ncn4)s3)nc3ccccc31)C2 [Compound 145]
14 nM	43.5 nM	C=CC(=O)N1CC[C@]2(C1)C[C@H](n1c(NC(=O)c3ccc(-c4ccn(C)c(=O)c4)s3)nc3ccccc31)C2 [Compound 109]
0.92 nM	1.81 nM	C=CC(=O)N1CC[C@]2(C1)C[C@H](n1c(NC(=O)c3ccc(-c4cnco4)s3)nc3cc(CN4CCOCC4)ccc31)C2 [Compound 41]
2.16 nM	26.2 nM	C=CC(=O)N1CC[C@]2(C1)C[C@H](n1c(NC(=O)c3ccc(C)s3)nc3ccccc31)C2 [Compound 104]
19.8 nM	65.3 nM	C=CC(=O)N1CC[C@]2(C1)C[C@H](n1c(NC(=O)c3ccn(C)c(=O)c3)nc3ccccc31)C2 [Compound 84]
0.75 nM	1.54 nM	C=CC(=O)N1CC[C@]2(C1)C[C@H](n1c(NC(=O)c3ccc(-c4cccc(NC)n4)s3)nc3ccccc31)C2 [Compound 139]
0.37 nM	3.27 nM	C=CC(=O)N1CC[C@]2(C1)C[C@H](n1c(NC(=O)c3ccc(-c4ccncn4)s3)nc3ccccc31)C2 [Compound 133]
0.49 nM	5.33 nM	C=CC(=O)N1CC[C@]2(C1)C[C@H](n1c(NC(=O)c3ccc(-c4cncn4C)s3)nc3ccccc31)C2 [Compound 123]
0.51 nM	5.23 nM	C=CC(=O)N1CC[C@]2(C1)C[C@H](n1c(NC(=O)c3ccc(-c4cccnc4)s3)nc3ccccc31)C2 [Compound 90]
0.21 nM	0.84 nM	C=CC(=O)N1CC[C@]2(C1)C[C@H](n1c(NC(=O)c3ccc(-c4c[nH]nc4C4CC4)s3)nc3ccccc31)C2 [Compound 129]
